# Data from patent publication US20220091133A1, “METHODS AND ASSAYS FOR IMMUNE PHENOTYPING” (Washington University, priority 2020, published 2022).
# Legend:
# [1] = tested on: pSTAT5 in CD4 and CD8 T cells; experiment: Mass cytometry (CyTOF) of intracellular phospho-STAT5 in T cells; type: in vivo, human
# Source text: To measure the specific molecular effects underlying the increased T cell responsiveness induced by IL-7, we measured intracellular levels of phospho-STATS (pSTAT5) in CD4 and CD8 T cells using mass cytometry. STATS is the primary T cell differentiation signal downstream of the IL-7 receptor [12]. T cells were identified based on surface marker staining (CD45+/CD15−/CD66b−/CD56−/CD3+). We then measured the pSTAT5 signal intensity. IL-7 was associated with a 3-fold increase in activated STATS in CD4-T cells and a 2-fold increase in CD8-T cells (FIG. 28C).
# [2] = tested on: PBMCs (myeloid cell TNF-α production); experiment: PBMC ELISpot, LPS-stimulated TNF-α production (Example 2); type: cell-based, human
# Description: (§1) Fresh whole blood samples were processed within 90 min of collection as previously described (28). Briefly, blood was diluted in an equal volume of PBS and layered carefully on Ficoll Paque PLUS (GE Healthcare). The PBMC fraction was isolated following centrifugation at 500×g for 30 min at room temperature. The number of total PBMCs was determined with a Vi-CELL Viability Analyzer (Beckman Coulter, Brea, Calif.). Flow cytometry was performed on PBMC fraction for cell typing.
# Innate and adaptive immune function was assessed using ELISpot analysis by measurement of the production of IFN-γ and TNF-α in ex vivo-stimulated cells following overnight culture. Capture Ab precoated 96-well polyvinylidene difluoride-backed strip plates were used for single color enzymatic assays (ImmunoSpot; Cellular Technology [CTL], Cleveland, Ohio) for detection of human IFN-γ and TNF-α. ELISpot culture procedure was followed as directed using instructions from the ELISpot kit. Samples were run in duplicate for each test condition. Plates were prepared with stimulant and were incubated at 37° C. and 5% CO2 for 30 min prior to plating cells. Identical conditions were prepared for comparison of whole blood assay to PBMC assay, and culture media alone was used as a negative control. Combination of 500 ng/ml of anti-CD3 (clone HIT3a; BioLegend) with 2.5 μg/ml of anti-CD28 (clone CD28.2; BioLegend) Abs were used to induce IFN-γ, and 2.5 ng/ml LPS (from Salmonella abortus equi S-form, ALX-581-009; Enzo Life Sciences, Farmingdale, N.Y.) was used to induce TNF-α wells. Total well volume for all samples was 200 μl. PBMCs were plated into wells in quantities of 2.5×10^4 cells per well for IFN-γ and 2.5×10^3 cells per well for TNF-α. […]
# (§2) Samples were scanned, analyzed, and quality controlled for spot count, spot area, and TWI using a Cellular Technology series 6 ImmunoSpot Universal Analyzer with ImmunoSpot 7.0 professional software (Cellular Technology Analyzers, Shaker Heights, Ohio). […]
# The number of cytokine-secreting cells present in each ELISpot well is referred to as spot-forming units (SFU) and is reported in two distinct ways. […] The number of lymphocytes in each well was determined based upon the absolute lymphocyte count as measured by the patients' complete blood count. For ELISpot studies involving PBMCs, flow cytometry was performed on the PBMC fraction, and the number of lymphocytes, monocytes, and residual neutrophils were determined. […] Samples were acquired on FACScan (Becton Dickenson, Franklin Lakes, N.J.) with a five-color modification (CyTek Biosciences, Fremont, Calif.) and analyzed using FlowJo 10.2 (FlowJo, Ashland, Oreg.) as previously described (28). […]
# [3] = tested on: PBMCs (T cell IFN-γ production); experiment: ELISpot, CD3/CD28-stimulated IFN-γ in patient PBMCs before and after IL-7 therapy (Example 5); type: in vivo, human; settings: concomitant with initiation of IL-7 treatment
# [4] = tested on: lymphocytes in infected wound; experiment: Anti-CD3 immunohistochemical staining of wound biopsies; type: in vivo, human; settings: after initiation of IL-7
# Source text: A beneficial effect of IL-7 in infectious disorders is to increase expression of lymphocyte adhesion molecules and induce lymphocyte trafficking to sites of infection.
# [5] = tested on: PBMCs (T cell IFN-γ production); experiment: PBMC ELISpot, CD3/CD28-stimulated IFN-γ production (Example 2); type: cell-based, human
# Description: as §1
# Innate and adaptive immune function was assessed using ELISpot analysis by measurement of the production of IFN-γ and TNF-α in ex vivo-stimulated cells following overnight culture. […] PBMCs were plated into wells in quantities of 2.5×10^4 cells per well for IFN-γ and 2.5×10^3 cells per well for TNF-α. […]
# as §2
# The number of cytokine-secreting cells present in each ELISpot well is referred to as spot-forming units (SFU) and is reported in two distinct ways. […] The number of lymphocytes in each well was determined based upon the absolute lymphocyte count as measured by the patients' complete blood count. […]
# [6] = tested on: T cells (IFN-γ production); experiment: IFN-γ ELISPOT on patient PBMCs before and during IL-7 therapy (Example 3); type: in vivo, human; settings: anti-CD3/anti-CD28 ex vivo stimulation, before vs during IL-7 therapy
# Description: The effect of IL-7 in terms of improving the patient's T cell function was evaluated by an ex vivo stimulation assay using anti-CD3 and anti-CD28 antibodies (BioLegend, San Diego, Calif., USA) on an IFN-γ ELISPOT assay (Cellular Technologies Limited, Shaker Heights, Ohio, USA), which was performed as previously described.
# [7] = tested on: PBMCs (T cell IFN-γ production); settings: critically ill COVID 19 disease patients, reference 18; cited from earlier work
# [8] = tested on: PBMCs (T cell IFN-γ production); type: cell-based, human
# SARS-CoV-2 = experiment: COVID-19-specific antibody levels (Example 5); type: in vivo, human; settings: critically ill COVID-19 patient
# [9] = tested on: peripheral blood mononuclear cells (T cell IFN-γ production); type: cell-based, human
substance,measurement,setting,value
"IL-7: recombinant human IL-7, immunoadjuvant and potent T cell activator; R&D Systems ex vivo, RevImmune for patients",increase in activated STAT5 (pSTAT5 signal intensity),[1]; CD4-T cells,3 fold
same,increase in activated STAT5 (pSTAT5 signal intensity),[1]; CD8-T cells,2 fold
same,STAT5 expression in lymphocytes after initiation of IL-7 compared with pretreatment,"[1]; CyTOF, geometric mean raw signal intensity",doubling
same,septic patients in whom IL-7 increased TNF-α production,"[2]; PBMC ELISpot, patients out of total",13/19
same,change in TNF-α SFUs with IL-7,"[2]; PBMC, CINS",significant increase
same,change in TNF-α SFUs with IL-7,"[2]; PBMCs, healthy subjects",no change
same,overall increase in TNF-α SFUs with IL-7,"[2]; PBMCs, septic patients, p<0.01",97%
same,increase in the number of IFN-γ-producing T cells,[3],multifold increases
same,number of CD3+ lymphocytes in biopsies from the infected wound,[4],marked increase
same,effect of IL-7 on IFN-γ SFUs,"[5]; PBMC, healthy subjects and CINS patients",significantly increased
same,effect of IL-7 on T cell IFN-γ production,"[5]; PBMCs, septic patients, p<0.0001",restore T cell IFN-γ production
same,"increase in the proportion of activated, IFN-γ-producing T cells from baseline",[6],1.4 fold
same,lymphocyte IFN-γ production on ex vivo addition of IL-7 to PBMCs,[7],doubled
same,mean number of IFN-γ-producing T cells following ex vivo administration of IL-7,"[8]; COVID-19 patient PBMCs, anti-CD3/anti-CD28 + IL-7 50 ng/mL overnight, control without IL-7 101±21, P<0.0001",201±36
same,increase of IFN-γ production of stimulated T cells by ex vivo IL-7,"[8]; COVID-19 patients, ELISpot",~2 fold
same,effect of IL-7 to increase the number of IFN-γ-producing T cells,[8]; septic and CINS patients,also observed
same,Coronavirus disease immunoglobulin G/M/A,"SARS-CoV-2; Post IL-7, Day 12",High positive
same,Coronavirus disease immunoglobulin G/M/A,"SARS-CoV-2; Post IL-7, Day 21",High positive
same,T cell function on coincubation with both dexamethasone and IL-7,[9],restored
